# Experimental data from US20220178944A1, “METHODS FOR IDENTIFYING DIFFERENTIAL HISTONE RETENTION FOR EPIGENETIC ALTERATIONS IN GERMLINE DNA OF ANIMALS” (Washington State University, priority 2020, published 2022).
# Key:
# Sprague Dawley rats = test: Histopathology and disease classification, F3 generation atrazine lineage males; format: in vivo, rat
# Procedure: Female and male rats of an outbred strain Hsd:Sprague Dawley SD (Harlan) at 70 to 100 days of age were fed ad lib with a standard rat diet and ad lib tap water. Timed-pregnant females on days 8 through 14 of gestation were administered daily intraperitoneal injections of atrazine (25 mg/kg BW/day dissolved in PBS) (Chem Service, Westchester Pa.) or dimethyl sulfoxide (DMSO) or as previously described. Twenty-five mg/kg for atrazine is 4% of rat oral LD50 and 50% of NOAEL.
# The gestating female rats treated were designated as the F0 generation. F1-F3 generation control and atrazine lineages were housed in the same room and racks with lighting, food and water.
# Rats were euthanized at 12 months of age by CO2 inhalation and cervical dislocation for tissue harvest. Testis, prostate, ovary, kidney, and gonadal fat pads were fixed in Bouin's solution (Sigma) followed by 70% ethanol, then processed for paraffin embedding and hematoxylin, and eosin (H & E) staining by standard procedures for histopathological examination. Paraffin five micron sections were processed and stained (Nationwide Histology, Spokane Wash., USA).
# Full necropsies were performed as required on animals that died prior to the time of scheduled sacrifice at one year and tumor classifications were performed.
# Upon dissection a brief examination of abdominal and thoracic organs was performed to look for obvious abnormalities. The tissues evaluated histologically were selected from previous literature showing them to have pathology in transgenerational models, with an emphasis on reproductive organs. Histopathology readers were trained to recognize the specific abnormalities evaluated for this study in rat testis, ventral prostate and kidney (see below). Two different readers initially evaluated the tissues. […] Readers were blinded to the exposure groups. A set of quality control (QC) slides was generated for each tissue and was read by each reader prior to evaluating any set of experimental slides. These QC slide results are monitored for reader accuracy and concordance.
# Testis histopathology criteria included the presence of vacuoles in the seminiferous tubules, azoospermic atretic seminiferous tubules, and ‘other’ abnormalities including sloughed spermatogenic cells in the center of the tubule and a lack of a tubule lumen. Prostate histopathology criteria included the presence of vacuoles in the glandular epithelium, atrophic glandular epithelium and hyperplasia of prostatic gland epithelium (FIG. 25). Kidney histopathology criteria included reduced size of glomerulus, thickened Bowman's capsule, and the presence of proteinaceous fluid-filled cysts >50 μm in diameter (FIG. 25). A cut-off was established to declare a tissue ‘diseased’ based on the mean number of histopathological abnormalities plus two standard deviations from the mean of control group tissues, as assessed by each of the individual readers. This number (i.e. greater than two standard deviations) was used to classify rats into those with and without testis, prostate, or kidney disease in the F3 generation lineage. A rat tissue section was finally declared ‘diseased’ only when at least two of the three readers marked the same tissue section ‘diseased’.
# Lean phenotype was assessed with a decrease in adipocyte size (area), body mass index (BMI) and abdominal adiposity. BMI was calculated with weight (g)/length (cm)^2 with the length of the animal measured from the nose to the base of the tail. Gonadal fat pad slides were imaged using a Nikon Eclipse E800 microscope (10×) with an AVT Prosilica GE1050C Color GigE camera. Five field of view image captures were taken per slide in varying parts of the fat pad. Adipocyte size was measured converting pixels into microns using Adiposoft. Measurements of the 20 largest cells from each image for a total of 100 were averaged as hypertrophic cells are the most metabolically relevant and susceptible to cell death. […]
# [1] = in vivo; cited from earlier work
# [2] = system: sperm histone H3 retention sites; test: Sperm differential histone retention regions (DHRs), histone H3 ChIP-Seq, glyphosate versus control lineage; format: in vivo, rat; details: F3 generation males; F0 25 mg/kg/day i.p. gestation days 8-14; edgeR p<1e-05
# Text: (§1) Outbred Sprague Dawley SD male and female rats were fed a standard diet with water ad lib and mated. […] Female and male rats of an outbred strain Hsd:Sprague Dawley SD (Harlan) at 70 to 100 days of age were fed ad lib with a standard rat diet and ad lib tap water.
# (§2) The gestating female rats treated were designated as the F0 generation. Breeding for each generation occurred at 70-90 days and 5 different litters were generated with no cousin or sibling breeding to avoid any inbreeding artifacts. Litters were culled to 10 pups (5 males and 5 females) between days 3-5 of birth to avoid litter effects. […] The F3 generation males were aged to 1 year of age for pathology analysis.
# Histone chromatin immunoprecipitation with genomic DNA was performed. Individual rat sperm were collected, and the sperm counts were determined for each individual. A sonication of 10 seconds was performed for each sperm sample to remove any somatic cell contamination using a Sonic Dismembrator Model 300 (Thermo Scientific Fisher, USA) then centrifuged 1800×g for 5 minutes at 4° C. then resuspended and counted individually on a Neubauer counting chamber (Propper manufacturing Co., Inc., New York, USA). The sperm samples were reconstituted up to 1 ml with PBS (phosphate buffered saline). […]
# sperm DNA methylation = test: Sperm differential DNA methylation regions (DMRs), MeDIP-Seq, glyphosate versus control lineage; format: in vivo, rat; details: F3 generation males, edgeR p<1e-05
# Text: as §1, §2
# Briefly, the epididymis was dissected free of fat and connective tissue, then, after cutting open the cauda, placed into 6 ml of phosphate buffer saline (PBS) for 20 minutes at room temperature. Further incubation at 4° C. will immobilize the sperm. The tissue was then minced, the released sperm pelleted at 4° C. 3,000×g for 10 min, then resuspended in NIM buffer and stored at −80° C. for further processing.
# An appropriate amount of rat sperm suspension was used for DNA extraction. […]
# Genomic DNA was sonicated and run on 1.5% agarose gel for fragment size verification. […] DNA concentration was measured in Qubit (Life Technologies) with the ssDNA kit (Molecular Probes Q10212). […]
# [3] = Glyphosate metabolism turnover (half-life); format: in vivo; details: worked out from 2-4 half-lives per 24-hour period
# [4] = cited from earlier work
# [5] = F3 generation atrazine lineage males, 1 year of age, # evaluated 55
Compound,prevalence of transgenerational lean pathology in the exposed population (Sprague Dawley rats; F3 generation atrazine lineage),"# affected, Kidney disease (Sprague Dawley rats; [5])","# affected, Lean (Sprague Dawley rats; [5])","# affected, Obese (Sprague Dawley rats; [5])","# affected, Prostate disease (Sprague Dawley rats; [5])","# affected, Testis disease (Sprague Dawley rats; [5])","# affected, Tumor (Sprague Dawley rats; [5])","# affected, Puberty Late (Sprague Dawley rats; F3 generation atrazine lineage males, # evaluated 55)","# affected, Puberty Early (Sprague Dawley rats; F3 generation atrazine lineage males, F0 25 mg/kg/day i.p. gestation days 8-14, # evaluated 55)",half-life (metabolism turnover) [1],"number of sperm DHRs, glyphosate versus control [2]","total number of sperm DMRs, control versus glyphosate (All Window) (sperm DNA methylation; F0 25 mg/kg/day i.p. gestation days 8-14)","number of sperm DMRs with multiple neighboring 1000 bp windows, control versus glyphosate (sperm DNA methylation)",daily decrease of concentration during the transient exposure period [3],"No Observational Adverse Effect Level (NOAEL) dose ([4]; direct exposure, mammalian rat model)","No Observable Adverse Effect Level (NOAEL) exposure ([4]; rat, in vivo)"
CCNc1nc(Cl)nc(NC(C)C)n1 [atrazine],nearly a third of the animals,8,15,4,4,12,1,10,0,,,,,,,
O=C(O)CNCP(=O)(O)O [glyphosate],,,,,,,,,,5 to 10 h,836,340,11,75-90%,50 mg/kg per day,50 mg/kg/day
